Measured values: US20100204110A1, “USE OF A PEPTIDE AS A THERAPEUTIC AGENT” (priority 2007, published 2010)
Ends that are not written are not given here.

Experiments:
[1] = system: HUVEC; experiment: Endothelial tube formation assay; settings: 10 micrograms per ml, 20 hours, combination peptide 1:peptide 2 1.10 mole:0.90 mole
Description: The endothelial tube formation assay is based on the ability of endothelial cells to form three-dimensional capillary-like tubular structures when cultured on a gel of basement membrane extract. […] Pre-labeled HUVEC with Calcein AM were seeded in a 96-well culture plate coated with extracellular metrix (Chemicon international Cat. ECM625) and treated with test peptides—10 micrograms per ml—in full growth medium. Positive control was vehicle only. The endothelial cells were allowed to form tubes foe 20 hours and were then examined under an inverted fluorescent microscope. Duplicate wells for each treatment were photographed and quantitatevily analyzed for an average tubule length using image analysis software ImageProPlus. Raw data were expressed as average tubule lenghs in pixels±standard deviation. Statistic p values were computed using the Student's t-test.

[2] = system: RAW 264.7 cells; experiment: Phagocytosis assay (Fluorescein-labeled Escherichia coli, flow cytometry); settings: 10 micrograms per ml, combination peptide 1 : peptide 2 1.10 mole : 0.90 mole
Description: RAW 264.7 (Mouse leukaemic monocyte macrophage cell line) cells were obtained from ATCC and grown in RPMI 1640 medium containing 10% FBS. Cells were incubated in 12×75 mm tubes at 37° C. with test peptides—10 micrograms per ml—for 30 min prior to adding Fluorescein-labeled Escherichia coli bacteria as the agent to be ingested. After the cells were incubated for additional 60 min at 37° C. and allowed to ingest the Fluorescein-labeled Escherichia coli bacteria, cells were fixed with 1% paraformaldehyde. The samples were then analyzed by flow cytometry to determine the amount of phagocytosis as a function of brightness (the greater the phagocytic activity, the more fluorescence in the macrophage population). Data are reported as % positive and the mean fluorescence intensity (MFI) of positively stained cells.

[3] = system: spleen cells; experiment: Th1/Th2 cytokine profiling assay (Ovalbumin-restimulated spleen cells, CBA Kit); settings: 10 micrograms per ml; Ovalbumin restimulation; 72 hours
Description: The Balb/c mice (originated in 1923, it is a popular strain and is used in many different research disciplines. Also classified as an inbred from the production of 20 or more successive brother-sister matings, the Balb/c mouse is albino and small in size) were immunized on Days 1, 15, and 29 with Ovalbumin (Ovalbumin is the main protein found in egg white, commonly used to stimulate an immunological reaction in test animals) in PBS (5 micrograms/injection). On day 50, spleens of the mice were harvested (3 weeks after last boost with Ovalbumin). Cells were cultured (2×10^5/well in triplicate) and incubated with culture medium or test peptides—10 micrograms per ml—for 30 min. Thereafter, additional Ovalbumin was added to the cells at 10 micrograms/ml for in vitro restimulation of the cells. 72 hours later, cell supernatants were harvested and assayed using the Becton Dickinson Mouse Th1/Th2 Cytokine CBA Kit. This kit can be used to measure Interleukin-2 (IL-2), Interleukin-4 (IL-4), Interleukin-5 (IL-5), Interferon-γ (IFN-γ), and Tumor Necrosis Factor-α (TNF-α) protein levels in a single sample. The kit performance has been optimized for analysis of physiologically relevant concentrations (pg/ml levels) of specific cytokine proteins in tissue culture supernatants and serum samples.

[4] = system: HCMV strain AD169; experiment: HCMV plaque formation assay in MRC-5 cells; settings: 10 micrograms per ml, 7-10 days
[5] = system: hepatitis B virus (HBV) ayw strain; experiment: HBV assay in HepG2-2.2.15 cells (TaqMan PCR of HBV DNA); format: cell-based; settings: 10 micrograms per ml, six days
Description: HepG2-2.2.15 is a stable cell line containing the hepatitis B virus (HBV) ayw strain genome (ATCC Cat. No. CRL-11997). Antiviral compounds blocking any late step of viral replication such as transcription, translation, pregenome encapsidation, reverse transcription, particle assembly and release can be identified and characterized using this cell line. In this assay, an active compound will reduce the production of secreted HBV from cells, measured by utilizing real time quantitative PCR (TaqMan) assay to directly and accurately measure HBV DNA copies.
HepG2-2.2.15 cells were plated in 96-well microtiter plates. After 16-24 hours the confluent monolayer of HepG2-2.2.15 cells was washed and the medium was replaced with complete medium containing test peptides—10 micrograms per ml—in duplicate. […] Six days following the initial administration of the peptides, the cell culture supernatants was collected, treated with pronase and DNAse and then used in a real-time quantitative TaqMan PCR assay. The PCR-amplified HBV DNA was detected in real-time by monitoring increases in fluorescence signals that result from the exonucleolytic degradation of a quenched fluorescence probe molecule that hybridizes to the mplified HBV DNA. […] Antiviral activity was calculated from the reduction in HBV DNA levels (% virus control). […]

[6] = system: Primary Human endothelial cells (HUVEC); experiment: Endothelial cell migration assay; settings: 10 micrograms per ml, 22 hours, combination peptide 1:peptide 2 0.95 mole:1.05 mole
Description: Primary Human endothelial cells (HUVEC) were seeded in insert chambers with 3 micrometer pore size of multi-transwell plate for 6 hours at 37° C. in Endothelial Cell Basal Medium (EBM) supplemented with 0.1% bovine serum albumin. Thereafter, designated concentration of testing peptides—10 micrograms per ml—was added in duplicate wells. The endothelia were allowed to migrate for 22 hours at 37° C., then, migrated cells were fixed and stained with Hoechst 33342 dye. Images of 3 fields per insert were taken and the number of migrated cells per field were quantified using the ImageProPlus software. Data were analyzed for the average number of the migrated cells and standard deviation of six data points for each treatment condition. […] Statistic p values were computed using the Student's t-test.

[7] = system: HIV-1IIIB; experiment: HIV-1 antiviral assay in CEM-SS cells (MTS); format: cell-based; settings: positive controls; CEM-SS cells plus HIV-1IIIB

Val-Tyr-Pro-Asn-Gly-Ala-Glu-Asp-Glu-Ser-Ala-Glu-Ala-Phe-Pro-Leu-Glu-Phe-OH (VYPNGAEDESAEAFPLEF-OH) [peptide 2]
inhibition of the tube formation of human endothelial cells [1]: did not inhibit
increase on the phagocytic activity of murine macrophages [2]: 28.6%
IFNγ spleen cells; TH1 response (% of control) [3]: 114.7 % of control
IL-2 spleen cells (% of control) [3]: 53.9 % of control
IL-4 spleen cells; TH2 response (% of control) [3]: 140.5 % of control
IL-5 spleen cells; TH2 response (% of control) [3]: 65.5 % of control
TNF-a spleen cells; TH1 response (% of control) [3]: 118.8 % of control
inhibition of HCMV plaque formation as compared to the virus control [4]: did not inhibit
inhibition of HBV replication as compared to the virus control infection [5]: 37.6%
inhibition of the migration of human endothelial cells [6]: 38%

Cc1cn([C@H]2C[C@H](N=[N+]=[N-])[C@@H](CO)O2)c(=O)[nH]c1=O [AZT]
antiviral activity of positive control compounds (HIV-1) [7]: expected levels of antiviral activity

CC(C)(C)NC(=O)[C@@H]1CN(Cc2cccnc2)CCN1C[C@@H](O)C[C@@H](Cc1ccccc1)C(=O)N[C@H]1c2ccccc2C[C@H]1O [indinavir]
antiviral activity of positive control compounds (HIV-1) [7]: expected levels of antiviral activity
